Test results reported in patent publication US8088818B2, “Catechol-based derivatives for treating or preventing diabetics” (National Taiwan University, priority 2006, dated 2012).

Tests used:
[1] = tested on: Normal rats; experiment: Blood sugar lowering in normal rats after oral administration; type: in vivo, rat
Method: (a) Male Wistar rats are provided from the National Laboratory Animal Breeding and Research Center (Taipei, Taiwan), each of whose weight is about 200-250 grams, and the average age thereof is above 8 weeks. They were housed under conditions of constant temperature (25±1[…]) and controlled illumination (light time and dark time are respectively 12 hours). Food and water were available.
(§1) (d) The administration: Dissolve the medicine equivalently in deionized water, and then administrate the mentioned solution into the normal and diabetic rats by an orally perfusion. Keep with the desired concentration of the perfusion amount by taking suitable amount of the medicine solution according to the weight of the different animal.
(§2) The rats to be experimented should undergo a starvation for 8-12 hours overnight. Next day, the rats are anesthetized with 30 mg/kg pentobarbital by injecting into the abdominal cavity. After the rats fall asleep, fix the rats on the board with the rubber band. Open the groin, find the veins, bleed 0.1 ml blood from an empty stomach, and then feed the medicine into the body of the rats by taking orally. After 90 minutes, bleed and perform a centrifugation (13,000 rpm, 5 minutes) to separate the serum and the plasma. Take the 10 μl supernatant of the serum and add 1 ml reagent of the glucose kit thereinto by gently mixing. React for 5 minutes at 37 °C, followed by detecting the value of the blood sugar by means of BST330 based on the different absorption level. […] The value of the blood sugar (mg/dL) is calculated by comparing the level of redness with contrasting the standard curve.
(§3) (The value of blood sugar at postadministration)−(The value of blood sugar at preadministration)/(The value of blood sugar at preadministration)×100%
(§4) The results of the experiments are presented in the average value±the standard error (mean±SE), and the variations therebetween are evaluated according to the Student's t-test, while the variations thereamong are evaluated according to one-way ANOVA and Bonferroni's t-test, wherein P<0.05 is deemed to have apparent differences.

[2] = tested on: Type 1 diabetic rats; experiment: Blood sugar lowering in streptozotocin-induced type 1 diabetic rats after oral administration; type: in vivo, rat; conditions: for % decrease in plasma glucose: type 1 diabetic rats, 90 min
Method: (b) Streptozocin-induced type 1 diabetic rats: the male Wistar rats of 8 weeks age undergo a starvation for 72 hours, followed by anaesthetizing the rats by injecting with 30 mg/kg pentobarbital into the abdominal cavity. After the rats fall asleep, 60 mg/kg streptozotocin (STZ) is administrated by an intravenous injection. After a week, phlebotomize and obtain a value of blood sugar by a glucose kit, wherein the glucose kit is further analyzed by Biosystem S.A., Barcelona Spain, BST330. While the value of the blood sugar is greater than 400 mg/dL and the typical three symptoms, eating more, drink more, micturition occur, it is deemed as Type 1 Diabetic rats.
as §1, §2, §3, §4

[3] = tested on: type I diabetic rats; experiment: Safety evaluation: survival rate of type I diabetic rats; type: in vivo, rat; conditions: for Survival rate (%) of rats: p.o., after seven days
Method: Table 13 is a safety evaluation, wherein the type I diabetic rats are respectively orally administrated with the compound 370G at the dosage of 10 mg/kg and 30 mg/kg.

[4] = tested on: rats with coronary artery ligature-reperfusion; experiment: Coronary artery ligature / reperfusion model of the living rat (area at risk, infarct size); type: in vivo; conditions: ischaemia 45 minutes, reperfusion two hours
Method: The grown-up male rats having the weight of 250˜300 grams (Sprague-Dawley strain, purchased BioLASCO Taiwan Co., Ltd.) are anesthetized with 1.25 g/kg urethane by the abdominal cavity injection. After anaesthetization, cut the trachea, connect with the artificial respirator (Harvard Rodent Ventilator Model 983), give 15 ml/kg of the tidal volume, and control the respiratory rate at […], followed by cutting off both sides of the vagus immediately. After the intubation of the right arterial carotis, it is connected to the pressure converter (Statham P23XL transducer) so as to monitor the changes of systemic blood pressure. In addition, the rats' four limbs are connected to the silver electrode, so as to record the changes of the electrocardiogram (ECG). Blood pressures, heartbeats and electrocardiogram curves are recorded and analyzed by the software (MacLab data acquisition system, AD Instrument Pty, Castle Hill, NSW, Australia).
After all previous preparations have been done, open the ribcage by the thoracotomy and cut off the skin layers and muscles to find the rib. Burn the fourth and fifth rib close to 2 mm of the sternum in an electrical knife and stabilize the injury with the retractor followed by rending the pericardial membrane, separating the left atrial appendage gently by the cottons, and clasping the anterior interventricular branch of the left coronary artery immediately between the left atrial appendage and the pulmonary artery by a needle forceps having a silk yarn with a hook. Put loops on both ends of silk yarn to seal the wound by unclamping the retractor. Balance in 15 minutes, and if there exists cardiac arrhythmia or the systolic pressure is lower than 80 mmHg, it will be eliminated.
After the balance, the acute cardiac muscle ischaemia is caused by pushing the loop passed by a silk yarn with a hemostat downwards to be stabilized. Then, unclamp the hemostat and uplift the loop to perform a reperfusion of the coronary artery being ligated by the silk yarn. […] If the same surgical procedure is performed, the rat without administrating the drug and performing an ischaemia and an ischaemia/reperfusion is regarded as the sham group. The rundown of the ischaemia and the ischaemia/reperfusion of the present test is as follows.
Perform an ischaemia for 45 minutes and perform an ischaemia/reperfusion for 2 hours. Administrate by injecting the drug into the abdominal cavity after perform the ischaemia for 15 minutes.
Inject the approximately 2 ml, 1% methylene blue into the ischaemic area via a jugular vein, where the non-ischemic area is dyed as purple and the ischemic area or area at risk is retained as red. Subsequently, the heart is immediately took out and washed by the physiological salt solution to remove the connective tissue of the atrium and the surplus water. Cut the undyed ischemic area and weight the total ventricle to calculate the ischemic area of the ventricle. Area at risk (% of total ventricular)=(Weight of risk area)/(Total ventricular weight)×100%.
Cut the ischemic area into a slice with the thickness of approximately 1 mm. Immerse the slice into a TTC (2,3,5-triphenyltetrazolium chloride, in saline) solution, and heat the resultant solution at the 37[…] incubator for 30 minutes, followed by replacing the solvent with 10% formaldehyde solution to preserve the resulting solution for two weeks. The living cells are able to produce the dehydrogenase, which could reduce TTC to a crimson formazan precipitate, whereas the dead cells are unable to produce dehydrogenase, which decolor the formazan as a gray precipitate. Cut and weight the gray infraction area and calculate the ratio. Infract Size (% of risk area)=(Weight of infraction)/(Weight of risk area)×100%.

O=C(/C=C/c1ccc(O)c(O)c1)NCCc1ccccc1 [370G (45)]
% decrease in plasma glucose ([1]; 0.5 mg/kg oral, Table 14): 32.8 ± 3.4 % | Post-treatment Plasma glucose ([1]; 0.5 mg/kg oral, post-treatment): 81.0 ± 5.7 mg/dL | Pre-treatment Plasma glucose ([1]; 0.5 mg/kg oral, pre-treatment (baseline)): 120.5 ± 5.3 mg/dL | effect for reducing the blood sugar, compared among rat models ([1]; normal rat): strongest effect | % decrease in plasma glucose ([1]; normal rats, 0.01 mg/kg oral, 90 min): 11.4 ± 3.1% | % decrease in plasma glucose ([1]; normal rats, 0.05 mg/kg oral, 90 min): 32.0 ± 1.1 % | % decrease in plasma glucose ([1]; normal rats, 0.1 mg/kg oral, 90 min): 32.9 ± 2.3 % | % decrease in plasma glucose ([1]; normal rats, 0.5 mg/kg oral, 90 min): 32.8 ± 3.4 % | % decrease in plasma glucose ([1]; normal rats, 1.0 mg/kg oral, 90 min): 29.5 ± 1.7 % | reducing the blood sugar (in words) ([1]; normal rats, oral 0.05 to 1.0 mg/kg): phenomenon of reducing the blood sugar are shown | % decrease in plasma glucose ([2]; 0.1 mg/kg oral): 11.8 ± 5.5 % | % decrease in plasma glucose ([2]; 0.5 mg/kg oral): 13.8 ± 4.3 % | % decrease in plasma glucose ([2]; 1.0 mg/kg oral): 11.6 ± 1.7 % | effect for reducing the blood sugar, compared among rat models ([2]; type I diabetic rat): weakest effect | Survival rate (%) of rats ([3]; 10 mg/kg): 100% | Survival rate (%) of rats ([3]; 30 mg/kg): 100% | effect on survival rate (in words) ([3]; oral 10 mg/kg and 30 mg/kg, seven days): do not affect the survival rate | ratio of the areas at risk in the overall area ([4]; 15 mg/kg): 41.1±1.3% | ratio of the areas at risk in the overall area ([4]; 10^−6 mg/kg): 39.1±1.9% | infract size (% of risk area) ([4]; 10^−5 mole/kg (approximately 2.8 mg/kg)): 68.8±2.9% | infract size (% of risk area) ([4]; 10^−6 mole/kg (approximately 0.28 mg/kg)): 70.9±2.8 | infract size (% of risk area) [4]: 62.8±1.8% | ratio of the areas at risk in the overall area [4]: 36.7±2.3%
